Assay results as given in patent US6965113B2, “Fluorescence intensity multiple distributions analysis: concurrent determination of diffusion times and molecular brightness” (Evotec AG, priority 2000, dated 2005).
Where two headings read alike, the source gives them in different places. Square brackets hold non-standard residues; d marks the D form. Peptide text beside a SMILES is read from it. * marks the point of attachment. X1 = CC[N+]1=C(C=CC=CC=C2N(CCCCCC(=O)*)c3ccc(S(=O)(=O)O)cc3C2(C)C)C(C)(C)c2cc(S(=O)(=O)[O-])ccc21; pY = N[C@@H](Cc1ccc(OP(=O)(O)O)cc1)C(=O)O

What was measured:
SH2 domain of Grb2 = molecular target: T1, SH2 domain of Grb2 (Homo sapiens, UniProt P62993); assay: Experiment 1: titration of SH2 against constant 0.4 nM pTyr-Val-Asn-Val-Lys(Cy5), confocal fluorescence fluctuation measurement (FIMDA, FCS, FIDA), hyperbolic fit of fraction bound; conditions: 0.4 nM conjugate, same buffer, T=20° C., read-out: binding constant KD for the SH2-phosphopeptide interaction
T1 construct: as a model system, the bare SH2 domain (14.3 kDa) has been chosen; made in house
From the text: The central optical part of the present FIMDA experiment is a confocal microscope as it is used in fluorescence correlation spectroscopy (Koppel et al., Biophys. J. 16: 1315-1329, 1976: Rigler et al., Eur. Biophys. J. 22: 169-175, 1993). For the excitation of fluorescence, a beam from a continuous wave laser is attenuated to ˜800 μW by neutral density filters, passes a beam expander, and is directed to the microscope objective (UApo/340, 40x, N.A. 1.15, Olympus Optical Co. Ltd., Tokyo, Japan) by a dichroic mirror. Fluorescence is collected by the said objective through the dichroic mirror, a spectral band-pass filter, and is focused to a confocal pinhole, which serves to reject the out-of-focus light. The light, which passes the pinhole, is detected by a silicon photon counting module (SPCM-AQ-131, EG&G Optoelectronics, Vaudreuil, Canada). […]
A series of simultaneously measured or simulated distributions is globally fitted using a Marquardt algorithm. […] Theoretical distributions are calculated using exactly the same algorithm as in FIDA, except that each species has an individual apparent concentration and an apparent brightness at each time window, calculated according to Eqs. […]

[1] = molecular target: T2, SH2-domain of the adapter protein Grb2 (Homo sapiens, UniProt P62993); assay: Experiment 2: titration of SH2 against constant 0.8 nM pTyr-Val-Asn-Val-Lys(Cy5), FCS, FIDA and FIMDA data collected simultaneously; type: binding; conditions: 0.8 nM conjugate, T=20° C.
T2 construct: as a model system, the bare SH2 domain (14.3 kDa) has been chosen; made in house
Experimental: Since the diffusion time of the dye is […] (compared to 40 μs) it spends only a short time in the confocal volume and its apparent brightness decreases. From this information the diffusion time can be calculated from a global fit.
The viability of the present invention was tested by measurements characterizing a ligand-protein interaction. The minimal peptide sequence pTyr-Val-Asn (originating from tyrosine kinase growth factor receptors) binds to the SH2-domain of the adapter protein Grb2. The conjugate pTyr-Val-Asn-Val-Lys(Cy5) was synthesized as binding partner for SH2. All measurements were performed under identical conditions (e.g. same buffer: sterile filter water, 50 mM Na-phosphate buffer pH 7.8, 50 mM NaCl and 0.05% Pluronic; T=20° C.). To obtain the KD value for the ligand protein interaction a titration experiment was carried out. The pTyr-Val-Asn-Val-Lys(Cy5) concentration was kept constant at 0.8 nM, while SH2 was subject to titration (0.01, 0.03, 0.1, 0.3, 1, 3, 10, 30, 100, and 130 μM). Each sample was measured 30 times keeping the acquisition time at 30 seconds per measurement. FCS (prior art), FIDA (prior art) and FIMDA (present invention) data were collected simultaneously in order to compare all three methods. It becomes clear that FIMDA is able to resolve both, the specific brightness and the diffusion time of both species (ligand and complex). Therefore, FIMDA is a more versatile tool than FCS or FIDA and will save assay development time. Comparing the standard deviations of all methods in determining brightness and diffusion time FIMDA is better or at least as good as FCS or FIDA.

T2 sequence (P62993 60-152 limits assumed): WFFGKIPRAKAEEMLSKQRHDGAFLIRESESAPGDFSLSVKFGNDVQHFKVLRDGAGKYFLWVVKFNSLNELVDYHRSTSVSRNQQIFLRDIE
T1 sequence (P62993 60-152 limits assumed): as above

Compound: CC[N+]1=C(C=CC=CC=C2N(CCCCCC(=O)NCCCC[C@H](NC(=O)[C@@H](NC(=O)[C@H](CC(N)=O)NC(=O)[C@@H](NC(=O)[C@@H](N)Cc3ccc(OP(=O)(O)O)cc3)C(C)C)C(C)C)C(=O)O)c3ccc(S(=O)(=O)O)cc3C2(C)C)C(C)(C)c2cc(S(=O)(=O)[O-])ccc21 [pTyr-Val-Asn-Val-Lys(Cy5)] (H-[pY]VNVK(X1)-OH; N-terminus and C-terminus assumed)
- Kd (SH2 domain of Grb2; FCS): 2160 ± 190 nM
- Kd (SH2 domain of Grb2; FIDA): 1600 ± 190 nM
- Kd ([1]; FCS, same buffer): 2260 ± 280 nM
- Kd ([1]; FIDA, same buffer): 1700 ± 290 nM
- Kd ([1]; FIMDA, 50 mM Na-phosphate buffer pH 7.8, 50 mM NaCl, 0.05% Pluronic): 1680 ± 270 nM
